# From patent US9365522B2, “Pyrazole amide derivative” (AMGEN INC., priority 2015, dated 2016)
# Biological target: T1, ligand binding domain of human ROR gamma (Homo sapiens, UniProt P51449)
# T1 construct: NM_001001523; expressed in transfected cells; host or cells: HEK293T
# T1 sequence (P51449 247-497 isoform P51449-2): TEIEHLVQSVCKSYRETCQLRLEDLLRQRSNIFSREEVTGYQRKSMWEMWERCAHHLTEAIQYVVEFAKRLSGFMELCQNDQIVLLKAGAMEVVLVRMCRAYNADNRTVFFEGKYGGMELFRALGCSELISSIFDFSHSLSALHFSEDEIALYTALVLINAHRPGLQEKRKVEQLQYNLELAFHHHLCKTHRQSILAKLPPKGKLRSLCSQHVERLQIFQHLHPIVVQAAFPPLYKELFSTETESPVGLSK
# Assay: ROR gamma reporter gene assay (GAL4-RORγ LBD luciferase, Dual-Glo)
# Assay type: cell-based
# Conditions: HEK293T cells transfected with pM-ROR gamma, 8 concentrations 3.5 nM to 10.5 μM, 24 h incubation; read-out: result (pIC50, inhibition of RORγ transcriptional activity) (converted)
# How it was run: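 Inhibition of RORγ-driven transcription was measured in HEK293T cells expressing a GAL4 fusion of the human RORγ LBD (aa 247-497), with renilla luciferase as internal control. Cells in 10% charcoal-stripped serum received compound (3.5 nM–10.5 μM) for 24 h.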
row,IC50,Compound
1,155000 pM,"CC(C)(C)SCCN(CC(=O)c1c(Cl)cc(F)cc1Cl)C(=O)c1cnn([C@H]2CC[C@](C)(C(=O)O)CC2)c1C(F)(F)F [Example 348, trans-4-(4-(2-tert-butylsulfanylethyl-(2-(2,6-dichloro-4-fluorophenyl)-2-oxoethyl)carbamoyl)-5-(trifluoromethyl)pyrazol-1-yl)-1-methylcyclohexane-1-carboxylic acid]"
2,309000 pM,"CC1(C)[C@@H]2C[C@H](N(CCc3n[nH]c4cccc(Cl)c34)C(=O)c3cnn([C@H]4CC[C@](C)(C(=O)O)CC4)c3C(F)(F)F)C[C@@H]21 [Example 376, trans-4-(4-((2-(4-chloro-1H -indazol-3-yl)ethyl)((1R,3r,5S)-6,6-dimethylbicyclo[3.1.0]hexan-3-yl)carbamoyl)-5-(trifluoromethyl)-1H-pyrazol-1-yl)-1-methylcyclohexanecarboxylic acid]"
3,513000 pM,"CC(COC(C)(C)C)N(CC(=O)c1c(Cl)cncc1Cl)C(=O)c1cnn([C@H]2CC[C@](C)(C(=O)O)CC2)c1C(F)(F)F (stereo partly drawn) [Example 332, trans-4-(4-((2-(3,5-dichloropyridin-4-yl)-2-oxoethyl)-(1-((2-methylpropan-2-yl)oxy)propan-2-yl)carbamoyl)-5-(trifluoromethyl)pyrazol-1-yl)-1-methylcyclohexane-1-carboxylic acid]"
4,178000 pM,"Cc1[nH]c2cccc(Cl)c2c1CCN(CC(C)(C)C)C(=O)c1cnn([C@H]2CC[C@](C)(C(=O)O)CC2)c1C(F)(F)F [Example 360, trans-4-(4-(2-(4-chloro-2-methyl-1H-indol-3-yl)ethyl-(2,2-dimethylpropyl)carbamoyl)-5-(trifluoromethyl)pyrazol-1-yl)-1-methylcyclohexane-1-carboxylic acid]"
5,661000 pM,"O=C(CN(C(=O)c1cnn([C@H]2CC[C@H](C(=O)O)CC2)c1C(F)(F)F)C1CCCCC1)c1c(Cl)cncc1Cl [Example 174, trans-4-(4-(cyclohexyl-(2-(3,5-dichloropyridin-4-yl)-2-oxoethyl)carbamoyl)-5-(trifluoromethyl)pyrazol-1-yl)cyclohexane-1-carboxylic acid]"

# The remaining lines, values behind:
row,Compound,IC50
1,"CC(=O)Nc1cccc(Cl)c1C(=O)CN(Cc1cc(F)cc(F)c1)C(=O)c1cnn([C@H]2CC[C@H](C(=O)O)CC2)c1C(F)(F)F [Example 13, trans-4-(4-((2-(2-acetamido-6-chlorophenyl)-2-oxoethyl)(3,5-difluorobenzyl)carbamoyl)-5-(trifluoromethyl)-1H-pyrazol-1-yl)cyclohexanecarboxylic acid]",93300 pM
2,"CC(C)(C)CN(CC(=O)c1c(Cl)cc(Cl)cc1Cl)C(=O)c1cnn([C@H]2CC[C@](C)(C(=O)O)CC2)c1C(F)(F)F [Example 221, trans-4-(4-(2,2-dimethylpropyl-(2-oxo-2-(2,4,6-trichlorophenyl)ethyl)carbamoyl)-5-(trifluoromethyl)pyrazol-1-yl)-1-methylcyclohexane-1-carboxylic acid]",2950 pM
3,"CCC(C)(C)CN(CC(=O)c1c(Cl)cc(Cl)cc1Cl)C(=O)c1cnn([C@H]2CC[C@](C)(C(=O)O)CC2)c1C(F)(F)F [Example 306, trans-4-(4-(2,2-dimethylbutyl-(2-oxo-2-(2,4,6-trichlorophenyl)ethyl)carbamoyl)-5-(trifluoromethyl)pyrazol-1-yl)-1-methylcyclohexane-1-carboxylic acid]",8320 pM
4,"CC(C)(C)O[C@H]1C[C@H](N(CC(=O)c2c(Cl)cncc2Cl)C(=O)c2cnn([C@H]3CC[C@H](C(=O)O)CC3)c2C(F)(F)F)C1 [Example 176, trans-4-(4-((2-(3,5-dichloropyridin-4-yl)-2-oxoethyl)-(3-((2-methylpropan-2-yl)oxy)cyclobutyl)carbamoyl)-5-(trifluoromethyl)pyrazol-1-yl)cyclohexane-1-carboxylic acid]",2.57e+06 pM
